In patent US20090054493A1, “THIAZOLE DERIVATIVES AS PPAR DELTA LIGANDS AND THEIR MANUFACTURING PROCESS” (priority 2005, published 2009):

Legend:
Type in all cases: cell-based
[1] = biological target: T1, PPARα (Homo sapiens, UniProt Q07869); experiment: Transfection assay (luciferase reporter) in CV-1 cells, PPARα; settings: full-length PPAR plasmid, luciferase normalized with β-galactosidase
T1 construct: full-length PPARs plasmid DNA; expressed in transfected cells; host or cells: CV-1 cells
T1 sequence (Q07869 1-468): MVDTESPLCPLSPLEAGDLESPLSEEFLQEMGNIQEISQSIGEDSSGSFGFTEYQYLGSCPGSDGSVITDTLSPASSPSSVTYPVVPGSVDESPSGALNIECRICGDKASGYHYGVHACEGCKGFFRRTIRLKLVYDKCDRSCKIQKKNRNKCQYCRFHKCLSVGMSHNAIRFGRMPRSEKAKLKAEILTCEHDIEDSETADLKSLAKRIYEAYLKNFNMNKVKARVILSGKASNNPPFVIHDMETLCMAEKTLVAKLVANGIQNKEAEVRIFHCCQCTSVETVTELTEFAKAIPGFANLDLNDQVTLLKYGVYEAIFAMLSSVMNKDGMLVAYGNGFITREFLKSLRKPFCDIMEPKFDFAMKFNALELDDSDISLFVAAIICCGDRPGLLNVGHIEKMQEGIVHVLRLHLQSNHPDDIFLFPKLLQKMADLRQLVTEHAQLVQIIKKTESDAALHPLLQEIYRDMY
Protocol: (§1) The compounds prepared in Examples were tested for PPARδ activity by a transfection assay. In addition, the compounds were tested for selectivity for PPARα and PPARγ, the subtypes of PPARs, and also tested for toxicity by a MTT assay.
(§2) A transfection assay was performed using CV-1 cells. The culture of the cells was performed using a DMEM medium (10% FBS, DBS (delipidated) and 1% penicillin/streptomycin) on a 96-well plate in a 5% carbon dioxide-containing incubator at 37° C. The test was performed in four steps consisting of cell inoculation, transfection, treatment of the compounds, and analysis of results. Specifically, CV-1 cells were inoculated onto a 96-well plate at a concentration of 5,000 cells/well, and after 24 hours, the cells were transfected. In the cell transfection, full-length PPARs plasmid DNA, reporter DNA that has luciferase activity and thus allows the identification of PPARs, and β-galactosidase DNA that provides the information of transfection efficiency, were used as transfection reagents. Each of the compounds developed in the present invention was dissolved in dimethylsulfoxide (DMSO) and transfected into the cells at various concentrations using media. The cells were cultured in an incubator for 24 and then lysed with lysis buffer. The lysed cells were measured for luciferase and β-galactosidase activities using a luminometer and a microplate reader. The measured luciferase values were normalized with the β-galactosidase values and graphed. From the graph, EC50 values were determined.

[2] = biological target: T2, PPARγ (Homo sapiens, UniProt P37231); experiment: Transfection assay (luciferase reporter) in CV-1 cells, PPARγ; settings: full-length PPAR plasmid, luciferase normalized with β-galactosidase
T2 construct: full-length PPARs plasmid DNA; expressed in transfected cells; host or cells: CV-1 cells
T2 sequence (P37231 1-505): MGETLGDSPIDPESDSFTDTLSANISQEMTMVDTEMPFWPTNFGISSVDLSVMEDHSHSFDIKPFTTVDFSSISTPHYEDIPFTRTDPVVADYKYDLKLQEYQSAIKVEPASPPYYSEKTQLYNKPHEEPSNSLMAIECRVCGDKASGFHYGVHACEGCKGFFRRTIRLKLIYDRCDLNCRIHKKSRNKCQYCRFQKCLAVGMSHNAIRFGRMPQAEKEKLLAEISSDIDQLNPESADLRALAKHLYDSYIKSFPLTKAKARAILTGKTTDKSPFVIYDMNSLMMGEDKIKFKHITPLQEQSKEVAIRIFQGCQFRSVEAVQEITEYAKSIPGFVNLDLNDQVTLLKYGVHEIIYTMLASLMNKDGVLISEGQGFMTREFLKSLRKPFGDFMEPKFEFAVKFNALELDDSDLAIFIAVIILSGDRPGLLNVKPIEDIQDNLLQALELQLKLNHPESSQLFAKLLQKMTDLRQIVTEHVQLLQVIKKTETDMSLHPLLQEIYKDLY
Protocol: as §1
as §2, with “The test was performed in four steps consisting of cell inoculation, transfection, treatment of the compounds, and analysis of results.” left out

[3] = MTT assay, cytotoxicity; settings: African green monkey, CV-1 cells, read-out: LC50 Cytotoxicity
Protocol: The compounds of Examples 47-97 according to the present invention were tested for cytotoxicity using a MTT assay. MTT is a water-soluble yellow substance, but if it is introduced into living cells, it will be degenerated into a water-insoluble purple crystal due to dehydrogenase contained in mitochondria. If this substance is dissolved in dimethylsulfoxide and then measured for absorbance at 550 nm, cytotoxicity can be assayed. The test method is as follows.
CV-1 cells were first inoculated onto a 96-well plate at a concentration of 5,000 cells/well. The inoculated cells were cultured in a 5% carbon dioxide-containing humidified incubator at 37° C. for 24 hours, and then treated with the inventive compounds at various concentrations. After 24 hours of culture, a MTT reagent was added to the cultured cells. After 15 minutes of culture, the resulting purple crystal was dissolved in dimethylsulfoxide and then measured for absorbance using a microplate reader. From the measured absorbance, cytotoxicity was assayed.

[4] = biological target: T3, PPARδ (Homo sapiens, UniProt Q03181); experiment: Transfection assay (luciferase reporter) in CV-1 cells, PPARδ; set-up: full-length PPARs plasmid DNA; expressed in transfected cells; host or cells: CV-1 cells; settings: full-length PPAR plasmid, luciferase normalized with β-galactosidase
T3 sequence (Q03181 1-441): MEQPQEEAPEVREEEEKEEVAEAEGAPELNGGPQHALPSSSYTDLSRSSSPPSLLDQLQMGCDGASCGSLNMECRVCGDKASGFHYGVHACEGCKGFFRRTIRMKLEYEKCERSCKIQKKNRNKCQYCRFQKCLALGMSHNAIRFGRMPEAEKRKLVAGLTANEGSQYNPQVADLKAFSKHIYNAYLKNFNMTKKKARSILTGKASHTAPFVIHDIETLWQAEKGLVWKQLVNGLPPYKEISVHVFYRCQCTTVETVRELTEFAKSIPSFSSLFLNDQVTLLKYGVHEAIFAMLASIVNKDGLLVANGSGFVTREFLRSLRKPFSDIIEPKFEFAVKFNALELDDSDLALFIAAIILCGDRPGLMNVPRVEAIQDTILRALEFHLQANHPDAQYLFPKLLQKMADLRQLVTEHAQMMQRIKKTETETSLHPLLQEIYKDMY
Protocol: as §1
as §2, with “The test was performed in four steps consisting of cell inoculation, transfection, treatment of the compounds, and analysis of results.” left out

Row | Structure (SMILES) | EC50 PPARα [1] | EC50 PPARγ [2] | CC50 at 24 h [3] [µM] | EC50 [4] [nM]
1 | Cc1cc(SC(Cc2c(F)cccc2Cl)c2sc(-c3ccc(C(F)(F)F)c(F)c3)nc2C)ccc1OCC(=O)O (stereo not drawn) [Example 91, 2-[4-[2-(2-chloro-6-fluorophenyl)-1-[2-[3-fluoro-4-(trifluoromethyl)phenyl]-4-methylthiazol-5-yl]ethylthio]-2-methylphenoxy]acetic acid] | ia | ia | > 10 | 3.9
2 | Cc1cc(SC(Cc2cc(F)c(F)c(F)c2)c2sc(-c3ccc(C(F)(F)F)c(F)c3)nc2C)ccc1OCC(=O)O (stereo not drawn) [Example 92, 2-[4-[1-[2-[3-fluoro-4-(trifluoromethyl)phenyl]-4-methylthiazol-5-yl]-2-(3,4,5-trifluorophenyl)ethylthio]-2-methylphenoxy]acetic acid] | ia | ia | > 30 | 21.6
3 | Cc1cc(SC(Cc2c(Cl)cccc2Cl)c2sc(-c3ccc(C(F)(F)F)c(F)c3)nc2C)ccc1OCC(=O)O (stereo not drawn) [Example 95, 2-[4-[2-(2,6-dichlorophenyl)-1-[2-[3-fluoro-4-(trifluoromethyl)phenyl]-4-methylthiazol-5-yl]ethylthio]-2-methylphenoxy]acetic acid] | ia | ia | > 10 | 2.3
4 | CCOC(=O)COc1ccc(SC(Cc2c(F)cccc2Cl)c2sc(-c3ccc(C(F)(F)F)cc3)nc2C)cc1C (stereo not drawn) [Example 47] | ia | ia | > 100 | 6.5
5 | Cc1cc(SC(Cc2ccc(C#N)cc2)c2sc(-c3ccc(C(F)(F)F)cc3)nc2C)ccc1OCC(=O)O (stereo not drawn) [Example 76, 2-[4-[2-(4-cyanophenyl)-1-[2-[4-(trifluoromethyl)phenyl]-4-methylthiazol-5-yl]ethylthio]-2-methylphenoxy]acetic acid] | ia | ia | > 100 | 22.1
6 | Cc1cc(SC(Cc2cc(F)ccc2Cl)c2sc(-c3ccc(C(F)(F)F)c(F)c3)nc2C)ccc1OCC(=O)O (stereo not drawn) [Example 97, 2-[4-[2-(2-chloro-5-fluorophenyl)-1-[2-[3-fluoro-4-(trifluoromethyl)phenyl]-4-methylthiazol-5-yl]ethylthio]-2-methylphenoxy]acetic acid] | ia | ia | > 30 | 17.4
7 | Cc1cc(SC(Cc2c(Cl)cccc2Cl)c2sc(-c3ccc(C(F)(F)F)cc3)nc2C)ccc1OCC(=O)O (stereo not drawn) [Example 84, 2-[4-[2-(2,6-dichlorophenyl)-1-[2-[4-(trifluoromethyl)phenyl]-4-methylthiazol-5-yl]ethylthio]-2-methylphenoxy]acetic acid] | ia | ia | > 100 | 2.1
8 | Cc1cc(SC(CCCc2ccccc2)c2sc(-c3ccc(C(F)(F)F)cc3)nc2C)ccc1OCC(=O)O (stereo not drawn) [Example 70, 2-[4-[1-[2-[4-(trifluoromethyl)phenyl]-4-methylthiazol-5-yl]-4-phenylbutylthio]-2-methylphenoxy]acetic acid] | ia | ia | 91 | 6.1
9 | Cc1cc(SC(CCc2ccccc2)c2sc(-c3ccc(C(F)(F)F)cc3)nc2C)ccc1OCC(=O)O (stereo not drawn) [Example 68, 2-[4-[1-[2-[4-(trifluoromethyl)phenyl]-4-methylthiazol-5-yl]-3-phenylpropylthio]-2-methylphenoxy]acetic acid] | ia | ia | > 100 | 2.7
10 | Cc1cc(SC(Cc2c(F)cccc2C(F)(F)F)c2sc(-c3ccc(C(F)(F)F)c(F)c3)nc2C)ccc1OCC(=O)O (stereo not drawn) [Example 93, 2-[4-[1-[2-[3-fluoro-4-(trifluoromethyl)phenyl]-4-methylthiazol-5-yl]-2-(2-fluoro-6-(trifluoromethyl)phenyl)ethylthio]-2-methylphenoxy]acetic acid] | ia | ia | > 10 | 2.6
11 | Cc1cc(SC(CCCCc2ccccc2)c2sc(-c3ccc(C(F)(F)F)cc3)nc2C)ccc1OCC(=O)O (stereo not drawn) [Example 71, 2-[4-[1-[2-[4-(trifluoromethyl)phenyl]-4-methylthiazol-5-yl]-5-phenylpentylthio]-2-methylphenoxy]acetic acid] | ia | ia | 93 | 38.8
12 | COc1cc(CC(Sc2ccc(OCC(=O)O)c(C)c2)c2sc(-c3ccc(C(F)(F)F)cc3)nc2C)cc(OC)c1 (stereo not drawn) [Example 79, 2-[4-[1-[2-[4-(trifluoromethyl)phenyl]-4-methylthiazol-5-yl]-2-(3,5-dimethoxyphenyl)ethylthio]-2-methylphenoxy]acetic acid] | ia | ia | > 100 | 46.4
